# Assay results as given in ChEMBL document CHEMBL4364251, “Design, synthesis and biological evaluation of new quinoline derivatives as potential antitumor agents” (Eur J Med Chem, 2019).
# Legend:
# Format in all cases: functional, cell-based
# HCT-116 = assay: Antiproliferative activity against human HCT116 cells incubated for 48 hrs by MTT assay; conditions: HCT-116, 48 h
# RKO = assay: Antiproliferative activity against human RKO cells incubated for 48 hrs by MTT assay
# A2780 = assay: Antiproliferative activity against human A2780 cells incubated for 48 hrs by MTT assay; conditions: A2780, 48 h
# HeLa = assay: Antiproliferative activity against human HeLa cells incubated for 48 hrs by MTT assay
# BGC-823 = assay: Antiproliferative activity against human BGC823 cells incubated for 48 hrs by MTT assay; conditions: BGC-823, 48 h
# A549 = assay: Antiproliferative activity against human A549 cells incubated for 48 hrs by MTT assay; conditions: A549, 48 h
# NCI-H1650 = assay: Antiproliferative activity against human NCI-H1650 cells incubated for 48 hrs by MTT assay; conditions: NCI-H1650, 48 h
IC50 (HCT-116),IC50 (A2780),IC50 (HeLa),IC50 (BGC-823),IC50 (A549),IC50 (NCI-H1650),SMILES,IC50 (RKO)
> 10 µM,9.55 µM,0.41 µM,> 10 µM,> 10 µM,> 10 µM,CCOc1ccc2c(Nc3cccc(OC)c3)ccnc2c1,> 10 µM
> 10 µM,0.59 µM,0.2 µM,> 10 µM,> 10 µM,> 10 µM,CC(C)Oc1ccc2c(Nc3cccc(F)c3)ccnc2c1,> 10 µM
> 10 µM,> 10 µM,> 10 µM,> 10 µM,> 10 µM,> 10 µM,CCCCCCCCOc1ccc2c(Nc3cccc([N+](=O)[O-])c3)ccnc2c1,> 10 µM
> 10 µM,> 10 µM,> 10 µM,> 10 µM,> 10 µM,> 10 µM,Fc1cccc(Nc2ccnc3cc(Br)ccc23)c1,> 10 µM
> 10 µM,> 10 µM,> 10 µM,> 10 µM,> 10 µM,> 10 µM,Fc1ccc2c(Nc3cccc(Br)c3)ccnc2c1,> 10 µM
8.76 µM,9.19 µM,5.39 µM,8.13 µM,9.49 µM,9.54 µM,O=[N+]([O-])c1cccc(Nc2ccnc3cc(OCc4ccccc4)ccc23)c1,9.68 µM
> 10 µM,> 10 µM,0.68 µM,9.85 µM,> 10 µM,> 10 µM,CCOc1ccc2c(Nc3cccc(F)c3)ccnc2c1,> 10 µM
> 10 µM,> 10 µM,> 10 µM,> 10 µM,> 10 µM,> 10 µM,O=[N+]([O-])c1cccc(Nc2ccnc3cc(Cl)ccc23)c1,> 10 µM
> 10 µM,6.77 µM,0.22 µM,3.83 µM,> 10 µM,> 10 µM,C=CCOc1ccc2c(Nc3cccc([N+](=O)[O-])c3)ccnc2c1,> 10 µM
9.3 µM,9.75 µM,4.3 µM,5.96 µM,9.52 µM,9.45 µM,CCCCCCCCOc1ccc2c(Nc3cccc(F)c3)ccnc2c1,9.54 µM
> 10 µM,> 10 µM,> 10 µM,> 10 µM,> 10 µM,> 10 µM,COc1ccc2c(Nc3cccc(O)c3)ccnc2c1,> 10 µM
> 10 µM,0.65 µM,0.23 µM,4.73 µM,> 10 µM,> 10 µM,COc1cccc(Nc2ccnc3cc(OC(C)C)ccc23)c1,> 10 µM
> 10 µM,> 10 µM,> 10 µM,7.45 µM,> 10 µM,> 10 µM,COc1ccc2c(Nc3cccc([N+](=O)[O-])c3)ccnc2c1,> 10 µM
> 10 µM,> 10 µM,> 10 µM,> 10 µM,> 10 µM,> 10 µM,O=[N+]([O-])c1cccc(Nc2ccnc3cc(Br)ccc23)c1,> 10 µM
6.83 µM,5.17 µM,4.35 µM,6.11 µM,> 10 µM,9.56 µM,CCCCOc1ccc2c(Nc3cccc([N+](=O)[O-])c3)ccnc2c1,7.81 µM
> 10 µM,> 10 µM,> 10 µM,> 10 µM,> 10 µM,> 10 µM,Fc1cccc(Nc2ccnc3cc(Cl)ccc23)c1,> 10 µM
> 10 µM,> 10 µM,> 10 µM,> 10 µM,> 10 µM,> 10 µM,COc1cccc(Nc2ccnc3cc(Br)ccc23)c1,> 10 µM
> 10 µM,> 10 µM,> 10 µM,> 10 µM,> 10 µM,> 10 µM,COc1cccc(Nc2ccnc3cc(OCc4ccccc4)ccc23)c1,> 10 µM
> 10 µM,> 10 µM,> 10 µM,> 10 µM,> 10 µM,> 10 µM,Fc1ccc(COc2ccc3c(Nc4cccc(F)c4)ccnc3c2)cc1,> 10 µM
> 10 µM,> 10 µM,> 10 µM,> 10 µM,> 10 µM,> 10 µM,COc1ccc2c(Nc3cccc(Br)c3)ccnc2c1,> 10 µM
> 10 µM,> 10 µM,> 10 µM,> 10 µM,> 10 µM,> 10 µM,COc1ccc2c(Nc3ccc(Cl)c(Cl)c3)ccnc2c1,> 10 µM
> 10 µM,8.21 µM,7.72 µM,> 10 µM,> 10 µM,8.13 µM,CCCCCCCCOc1ccc2c(Nc3cccc(OC)c3)ccnc2c1,> 10 µM

IC50 (HCT-116),IC50 (A2780),IC50 (HeLa),IC50 (BGC-823),IC50 (A549),IC50 (NCI-H1650),SMILES,IC50 (RKO)
> 10 µM,> 10 µM,> 10 µM,> 10 µM,> 10 µM,> 10 µM,COc1cccc(Nc2ccnc3cc(Cl)ccc23)c1,> 10 µM
> 10 µM,> 10 µM,> 10 µM,> 10 µM,> 10 µM,> 10 µM,COc1cccc(Nc2ccnc3cc(F)ccc23)c1,> 10 µM
> 10 µM,> 10 µM,3.42 µM,> 10 µM,> 10 µM,> 10 µM,CCOc1ccc2c(Nc3cccc([N+](=O)[O-])c3)ccnc2c1,> 10 µM
> 10 µM,> 10 µM,0.84 µM,> 10 µM,> 10 µM,> 10 µM,CCCCOc1ccc2c(Nc3cccc(Br)c3)ccnc2c1,> 10 µM
7.46 µM,4.46 µM,4.13 µM,8.32 µM,5.09 µM,6.01 µM,O=[N+]([O-])c1cccc(Nc2ccnc3cc(OCCCc4ccccc4)ccc23)c1,8.29 µM
> 10 µM,> 10 µM,> 10 µM,> 10 µM,> 10 µM,> 10 µM,O=[N+]([O-])c1cccc(Nc2ccnc3cc(F)ccc23)c1,> 10 µM
> 10 µM,> 10 µM,> 10 µM,> 10 µM,> 10 µM,> 10 µM,COc1cccc(Nc2ccnc3cc(OCc4ccc(F)cc4)ccc23)c1,> 10 µM
> 10 µM,8.06 µM,2.2 µM,6.65 µM,> 10 µM,> 10 µM,C=CCOc1ccc2c(Nc3cccc(OC)c3)ccnc2c1,> 10 µM
> 10 µM,1.19 µM,0.31 µM,> 10 µM,> 10 µM,> 10 µM,C=CCOc1ccc2c(Nc3cccc(F)c3)ccnc2c1,> 10 µM
> 10 µM,4.62 µM,0.25 µM,> 10 µM,> 10 µM,> 10 µM,Fc1cccc(Nc2ccnc3cc(OCCCc4ccccc4)ccc23)c1,> 10 µM
7.68 µM,8.87 µM,6.56 µM,7.26 µM,> 10 µM,8.69 µM,CCCCOc1ccc2c(Nc3cccc(OC)c3)ccnc2c1,8.1 µM
> 10 µM,> 10 µM,> 10 µM,> 10 µM,> 10 µM,> 10 µM,COc1ccc2c(Nc3cccc(F)c3)ccnc2c1,> 10 µM
> 10 µM,> 10 µM,> 10 µM,> 10 µM,> 10 µM,> 10 µM,Brc1cccc(Nc2ccnc3cc(Br)ccc23)c1,> 10 µM
> 10 µM,> 10 µM,> 10 µM,> 10 µM,> 10 µM,> 10 µM,COc1cccc(Nc2ccnc3cc(OC)ccc23)c1,> 10 µM
> 10 µM,1.47 µM,0.52 µM,8.39 µM,> 10 µM,> 10 µM,CC(C)Oc1ccc2c(Nc3cccc([N+](=O)[O-])c3)ccnc2c1,> 10 µM
> 10 µM,> 10 µM,> 10 µM,> 10 µM,> 10 µM,> 10 µM,Clc1cccc(Nc2ccnc3cc(Br)ccc23)c1,> 10 µM
> 10 µM,> 10 µM,> 10 µM,> 10 µM,> 10 µM,> 10 µM,Fc1cccc(Nc2ccnc3cc(F)ccc23)c1,> 10 µM
> 10 µM,> 10 µM,> 10 µM,> 10 µM,> 10 µM,> 10 µM,Fc1ccc2c(Nc3cccc(Cl)c3)ccnc2c1,> 10 µM
> 10 µM,8.2 µM,1.43 µM,9.42 µM,> 10 µM,> 10 µM,CCCCOc1ccc2c(Nc3cccc(F)c3)ccnc2c1,> 10 µM
8.17 µM,6.51 µM,5.79 µM,9.45 µM,7.3 µM,9.35 µM,O=[N+]([O-])c1cccc(Nc2ccnc3cc(OCc4ccc(F)cc4)ccc23)c1,8.7 µM
> 10 µM,> 10 µM,> 10 µM,> 10 µM,> 10 µM,> 10 µM,Fc1cccc(Nc2ccnc3cc(OCc4ccccc4)ccc23)c1,> 10 µM
